Reference: patent US9447408B2, “Method of efficiently establishing induced pluripotent stem cells” (Kyoto University, priority 2010, dated 2016)

System: Mouse embryonic fibroblasts (MEFs)
Assay: iPS cell establishment from MEFs, 3 genes (Oct3/4, Sox2, Klf4) introduced, with p38 inhibitors
Type: cell-based
Settings: 10 μM inhibitor, 2×10^4 cells/10 cm dish, FIG. 2
Description: Three genes were introduced using a retrovirus by the same experimental procedures as the above. The cells were cultured at a cell density of 2×10^4 cells/10 cm dish, with the addition of 10 μM of SB202190, SB239063, or SB203580 (Calbiochem Company) to the medium per the schedule shown below, and the establishment efficiency was compared. • 1. Oct3/4, Sox2, Klf4, each derived from mouse, saline • 2. Oct3/4, Sox2, Klf4, each derived from mouse, DMSO • 3. Oct3/4, Sox2, Klf4, each derived from mouse, SB202190 10 μM (Day 1-4) • 4. Oct3/4, Sox2, Klf4, each derived from mouse, SB202190 10 μM (Day 1-8) • 5. Oct3/4, Sox2, Klf4, each derived from mouse, SB202190 10 μM (Day 9-16) • 6. Oct3/4, Sox2, Klf4, each derived from mouse, SB202190 10 μM (Day 1-16) • 7. Oct3/4, Sox2, Klf4, each derived from mouse, SB239063 10 μM (Day 1-4) • 8. Oct3/4, Sox2, Klf4, each derived from mouse, SB239063 10 μM (Day 1-8) • 9. Oct3/4, Sox2, Klf4, each derived from mouse, SB239063 10 μM (Day 9-16) • 10. Oct3/4, Sox2, Klf4, each derived from mouse, SB239063 10 μM (Day 1-16) • 11. Oct3/4, Sox2, Klf4, each derived from mouse, SB203580 10 μM (Day 1-4) • 12. Oct3/4, Sox2, Klf4, each derived from mouse, SB203580 10 μM (Day 1-8) • 13. Oct3/4, Sox2, Klf4, each derived from mouse, SB203580 10 μM (Day 9-16) • 14. Oct3/4, Sox2, Klf4, each derived from mouse, SB203580 10 μM (Day 1-16),

## COc1nccc(-c2c(-c3ccc(F)cc3)ncn2[C@H]2CC[C@H](O)CC2)n1 [SB239063, trans-1-(4-Hydroxycyclohexyl)-4-(4-fluorophenyl)-5-(2-methoxypyrimidin-4-yl)imidazole]
  number of Nanog-GFP-positive colonies compared with physiological saline or DMSO: increased
  total number of colonies compared with physiological saline or DMSO: increased
